Measured values: BindingDB's records for PubMed 34154424 (Bayer AG)

Legend:
[1] = molecular target: Tyrosine-protein kinase Fyn (Homo sapiens) (UniProt P06241); experiment: Inhibition of T-Fyn (unknown origin) by HTRF assay
[2] = molecular target: Mitogen-activated protein kinase kinase kinase 7, TAK1 kinase (Homo sapiens) (UniProt O43318); experiment: Inhibition of Tak1 (unknown origin) by competition binding assay
[3] = molecular target: Mitogen-activated protein kinase kinase kinase 7, TAK1 kinase (Homo sapiens) (UniProt O43318); experiment: Inhibition of Tak1 (unknown origin) in presence of ATP

Chain of Mitogen-activated protein kinase kinase kinase 7, TAK1 kinase (Homo sapiens) (O43318 whole entry, looked up): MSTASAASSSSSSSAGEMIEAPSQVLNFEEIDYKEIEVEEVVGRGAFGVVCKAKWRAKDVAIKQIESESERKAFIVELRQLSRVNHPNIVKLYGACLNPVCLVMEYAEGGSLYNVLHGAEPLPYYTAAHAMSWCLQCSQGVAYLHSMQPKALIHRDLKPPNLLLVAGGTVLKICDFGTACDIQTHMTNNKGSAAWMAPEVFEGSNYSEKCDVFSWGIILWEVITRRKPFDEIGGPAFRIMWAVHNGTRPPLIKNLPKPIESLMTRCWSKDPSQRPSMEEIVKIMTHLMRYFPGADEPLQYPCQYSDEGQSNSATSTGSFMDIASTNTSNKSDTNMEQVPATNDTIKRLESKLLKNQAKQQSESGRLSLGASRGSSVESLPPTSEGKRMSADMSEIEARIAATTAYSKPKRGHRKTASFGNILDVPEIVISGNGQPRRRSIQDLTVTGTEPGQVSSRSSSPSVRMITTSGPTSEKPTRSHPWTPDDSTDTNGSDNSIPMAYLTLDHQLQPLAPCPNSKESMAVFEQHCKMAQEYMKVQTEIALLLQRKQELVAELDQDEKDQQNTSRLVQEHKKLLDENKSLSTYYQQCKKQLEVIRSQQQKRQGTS
Chain of Tyrosine-protein kinase Fyn (Homo sapiens) (P06241 whole entry, looked up): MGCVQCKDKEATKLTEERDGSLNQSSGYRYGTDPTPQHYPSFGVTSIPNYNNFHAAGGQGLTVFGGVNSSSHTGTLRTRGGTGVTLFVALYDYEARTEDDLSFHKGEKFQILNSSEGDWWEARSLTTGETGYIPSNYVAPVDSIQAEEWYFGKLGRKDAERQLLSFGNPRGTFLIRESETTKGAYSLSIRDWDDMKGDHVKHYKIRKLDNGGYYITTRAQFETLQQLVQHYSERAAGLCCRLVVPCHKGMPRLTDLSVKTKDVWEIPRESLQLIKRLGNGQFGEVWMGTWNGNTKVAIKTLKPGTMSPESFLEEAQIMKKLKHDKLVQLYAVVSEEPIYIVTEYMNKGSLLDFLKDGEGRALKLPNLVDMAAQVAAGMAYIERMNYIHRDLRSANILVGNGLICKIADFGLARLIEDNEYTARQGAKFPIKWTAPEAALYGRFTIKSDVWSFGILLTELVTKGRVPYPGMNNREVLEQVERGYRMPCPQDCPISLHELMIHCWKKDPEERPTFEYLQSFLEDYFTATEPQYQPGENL

IC50 [1]: > 5.7 nM
IC50 [2]: > 2 nM
IC50 [3]: > 2 nM
SMILES: C[C@H]1CC(=O)Nc2cc(C(=O)NCCC3CC3)ccc2N1C(=O)N1CC2CC2C1 (stereo partly drawn)
